According to patent US7081460B2, “Quinazoline and quinazoline-like compounds for the treatment of integrin-mediated disorders” (Ortho-McNeil Pharmaceutical, Inc., priority 2001, dated 2006):
Where two headings read alike, the source gives them in different places.

Columns and labels:
GPIIb/IIIa = GPIIb/IIIa (Homo sapiens, UniProt P05106+P08514); experiment: In vitro solid phase purified glycoprotein IIb/IIIa binding assay (biotinylated fibrinogen)
Method: (§1) In vitro Solid Phase Purified αvβ3 Binding Assay The vitronectin/αvβ3 binding assay methods were derived from Mehta et al. (Biochem J. 1998, 330, 861). Human αvβ3 (Chemicon International Inc., Temecula, Calif.), at a concentration of 1 μg/ml dissolved in Tris buffer (20 mM Tris, 1 mM CaCl2, 1 mM MgCl2, 10 μM MnCl2, 150 mM NaCl), was immobilized on Immulon 96 well plates (Dynex Technologies, Chantilly, Va.) overnight at 4° C. Plates were washed and treated with blocking buffer (3% BSA in Tris buffer) for 2 h at 37 C. Plates were then rinsed 2 times in Tris buffer containing 0.3% BSA and 0.2% Tween20 (polyoxyethylenesorbitan monolaurate). Five minutes prior to the addition of 5 nM vitronectin (Sigma, St. Louis, Mo.), compounds of the invention were added to wells in duplicate. Each plate included c-RGDfV as an internal control. Following a 3 hour incubation at 37° C., plates were washed 5 times in assay buffer. An anti-human vitronectin IgG rabbit polyclonal antibody (Calbiochem, San Diego, Calif.) was added (1:2000) and plates were incubated for 1 hour at room temperature. VectaStain ABC peroxidase kit reagents (Vector Laboratories, Burlingame, Calif.) employing a biotin labeled anti-rabbit IgG, were utilized for detection of bound antibody. Plates were read at 490 nm on a Molecular Devices (Sunnyvale, Calif.) microplate reader. […] The plate was covered and incubated overnight at 4° C. The GPIIb/IIIa solution was discarded and 150 μl of 5% BSA was added and incubated at RT for 1–3 h. The plate was washed extensively with modified Tyrodes buffer. Biotinylated fibrinogen (25 μl/well) at 2× final concentration was added to the wells that contain the test compounds (25 μl/well). The plate was covered and incubated at RT for 2–4 h. Twenty minutes prior to incubation completion, one drop of Reagent A (VectaStain ABC Horse Radish Peroxidase kit, Vector Laboratories, Inc.) and one drop Reagent B were added with mixing to 5 mL modified Tyrodes buffer mix and let stand. The ligand solution was discarded and the plate washed (5×200 μl/well) with modified Tyrodes buffer. Vecta Stain HRP-Biotin-Avidin reagent (50 μl/well, as prepared above) was added and incubated at RT for 15 min. The Vecta Stain solution was discarded and the wells washed (5×200 μl/well) with modified Tyrodes buffer. Developing buffer (10 mL of 50 mM citrate/phosphate buffer @ pH 5.3, 6 mg o-phenylenediamine, 6 μl 30% H2O2; 50 μl/well) was added and incubated at rt for 3–5 min, and then 2 N H2SO4 (50 μl/well) was added. The absorbance was read at 490 nm.

Human αvβ3 = biological target: T1, Human αvβ3 (Homo sapiens, UniProt P05106+P06756); experiment: In vitro solid phase purified αvβ3 binding assay (vitronectin/αvβ3)
T1 construct: purchased Chemicon International Inc., Temecula, Calif
T1 sequence (P06756 31-889 limits assumed): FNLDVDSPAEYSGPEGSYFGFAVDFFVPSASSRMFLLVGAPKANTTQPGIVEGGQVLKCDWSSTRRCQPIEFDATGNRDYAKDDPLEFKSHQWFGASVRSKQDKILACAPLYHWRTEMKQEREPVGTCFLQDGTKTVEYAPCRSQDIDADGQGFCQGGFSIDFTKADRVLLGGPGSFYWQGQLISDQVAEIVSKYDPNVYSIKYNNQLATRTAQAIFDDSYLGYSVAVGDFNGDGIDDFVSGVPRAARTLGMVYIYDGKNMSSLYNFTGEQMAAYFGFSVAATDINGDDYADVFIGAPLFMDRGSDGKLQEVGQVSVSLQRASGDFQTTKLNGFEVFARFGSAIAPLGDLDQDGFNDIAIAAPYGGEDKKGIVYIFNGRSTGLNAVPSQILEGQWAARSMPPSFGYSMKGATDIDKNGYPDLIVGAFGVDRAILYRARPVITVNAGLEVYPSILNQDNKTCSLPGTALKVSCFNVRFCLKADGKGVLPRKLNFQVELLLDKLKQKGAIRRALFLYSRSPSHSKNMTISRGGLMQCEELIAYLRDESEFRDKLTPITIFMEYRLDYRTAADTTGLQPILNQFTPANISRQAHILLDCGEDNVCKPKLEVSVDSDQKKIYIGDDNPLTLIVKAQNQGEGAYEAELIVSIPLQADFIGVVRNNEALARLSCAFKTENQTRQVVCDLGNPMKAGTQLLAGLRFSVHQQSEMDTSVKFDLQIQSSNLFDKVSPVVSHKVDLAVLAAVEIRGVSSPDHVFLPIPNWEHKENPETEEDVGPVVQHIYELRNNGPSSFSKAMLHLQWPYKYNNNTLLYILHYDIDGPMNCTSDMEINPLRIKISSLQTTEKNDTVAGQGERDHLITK
T1 sequence (P06756 891-1048 partner limits assumed): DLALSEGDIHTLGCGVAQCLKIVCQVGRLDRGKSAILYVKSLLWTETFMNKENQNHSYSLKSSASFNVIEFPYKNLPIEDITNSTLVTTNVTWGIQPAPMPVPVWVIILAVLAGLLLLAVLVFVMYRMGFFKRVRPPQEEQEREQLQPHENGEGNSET
T1 sequence (P05106 27-788): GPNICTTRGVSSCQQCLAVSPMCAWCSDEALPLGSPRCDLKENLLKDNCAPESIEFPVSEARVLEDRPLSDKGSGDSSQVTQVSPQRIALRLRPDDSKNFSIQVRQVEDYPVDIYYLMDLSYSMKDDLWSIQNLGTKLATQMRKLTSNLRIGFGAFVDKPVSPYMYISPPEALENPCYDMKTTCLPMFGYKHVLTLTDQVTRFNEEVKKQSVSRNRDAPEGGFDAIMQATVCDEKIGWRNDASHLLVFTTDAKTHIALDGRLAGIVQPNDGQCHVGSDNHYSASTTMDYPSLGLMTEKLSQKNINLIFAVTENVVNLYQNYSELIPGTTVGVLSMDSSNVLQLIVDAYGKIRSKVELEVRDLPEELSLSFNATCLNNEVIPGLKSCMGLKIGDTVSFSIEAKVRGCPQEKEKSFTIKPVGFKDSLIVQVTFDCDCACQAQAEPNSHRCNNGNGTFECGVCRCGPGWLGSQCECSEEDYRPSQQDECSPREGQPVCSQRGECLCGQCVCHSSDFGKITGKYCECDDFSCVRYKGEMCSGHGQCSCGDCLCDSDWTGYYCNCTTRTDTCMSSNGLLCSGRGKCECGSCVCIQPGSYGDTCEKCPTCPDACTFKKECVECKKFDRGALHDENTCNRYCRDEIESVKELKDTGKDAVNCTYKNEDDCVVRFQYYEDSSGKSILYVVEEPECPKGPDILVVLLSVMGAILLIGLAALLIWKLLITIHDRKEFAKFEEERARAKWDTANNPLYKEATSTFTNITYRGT
Method: as §1

[1] = RGD-affinity purified GPIIb/IIIa, biotinylated fibrinogen, read-out: GPIIb/IIIa Binding IC50
[2] = isolated human αvβ3, 5 nM vitronectin, read-out: αvβ3 Binding IC50

GPIIb/IIIa, sequence (P08514 32-887 limits assumed): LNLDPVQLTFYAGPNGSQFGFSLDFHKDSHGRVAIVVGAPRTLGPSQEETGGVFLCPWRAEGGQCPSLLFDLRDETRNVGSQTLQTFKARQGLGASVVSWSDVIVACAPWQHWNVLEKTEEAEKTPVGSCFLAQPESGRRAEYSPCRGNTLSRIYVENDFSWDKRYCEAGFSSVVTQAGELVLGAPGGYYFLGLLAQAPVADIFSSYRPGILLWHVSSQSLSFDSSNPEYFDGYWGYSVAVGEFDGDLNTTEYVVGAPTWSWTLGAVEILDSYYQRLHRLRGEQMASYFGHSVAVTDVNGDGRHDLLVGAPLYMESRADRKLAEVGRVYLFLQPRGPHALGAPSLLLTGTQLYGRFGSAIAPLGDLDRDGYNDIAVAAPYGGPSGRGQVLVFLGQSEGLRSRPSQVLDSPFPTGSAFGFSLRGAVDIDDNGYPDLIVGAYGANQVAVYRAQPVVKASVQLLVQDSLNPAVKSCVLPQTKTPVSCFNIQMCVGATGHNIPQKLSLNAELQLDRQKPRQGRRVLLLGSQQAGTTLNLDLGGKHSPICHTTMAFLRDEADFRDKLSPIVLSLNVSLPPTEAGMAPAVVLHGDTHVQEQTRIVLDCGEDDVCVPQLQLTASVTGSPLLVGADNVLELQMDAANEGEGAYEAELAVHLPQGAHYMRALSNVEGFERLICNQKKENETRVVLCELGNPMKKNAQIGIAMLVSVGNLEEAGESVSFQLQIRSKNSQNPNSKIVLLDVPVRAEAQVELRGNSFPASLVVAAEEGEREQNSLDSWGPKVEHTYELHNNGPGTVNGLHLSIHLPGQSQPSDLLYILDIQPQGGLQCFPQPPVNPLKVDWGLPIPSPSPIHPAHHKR
GPIIb/IIIa, sequence (P08514 891-1039 partner limits assumed): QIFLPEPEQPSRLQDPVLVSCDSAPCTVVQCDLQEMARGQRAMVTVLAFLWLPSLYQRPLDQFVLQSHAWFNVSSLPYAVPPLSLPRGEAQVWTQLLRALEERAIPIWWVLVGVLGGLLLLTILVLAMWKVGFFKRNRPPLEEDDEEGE
GPIIb/IIIa, sequence (P05106 27-788): as the sequence (P05106 27-788) above

Row | Compound | IC50 (GPIIb/IIIa; [1]) | IC50 (Human αvβ3; [2]) | IC50 (GPIIb/IIIa) | IC50 (Human αvβ3)
1 | Cc1c(C)c(C)c(S(=O)(=O)N[C@@H](Cc2nc3ccc(/C=C/CNC4=NCCCC4)cc3c(=O)[nH]2)C(=O)O)c(C)c1C [Compound 52, (αS)-3,4-dihydro-4-oxo-α-(α^2S)-[[(2,3,4,5,6-pentamethylphenyl)sulfonyl]amino]-6-[(1E)-3-[(3,4,5,6-tetrahydro-2-pyridinyl)amino]-1-propenyl]-2-quinazolinepropanoic acid] | 110 nM | 24 nM | – | –
2 | Cc1c(C)c(C)c(S(=O)(=O)N[C@@H](Cc2nc3ccc(/C=C/CNC4=NCCC4)cc3c(=O)[nH]2)C(=O)O)c(C)c1C [Compound 15, 6-[(1E)-3-[(3,4-dihydro-2H-pyrrol-5-yl)amino]-1-propenyl]-(αS)-3,4-dihydro-4-oxo-α-[[(2,3,4,5,6-pentamethylphenyl)sulfonyl]amino]-2-quinazolinepropanoic Acid] | 77 nM | 18 nM | – | –
3 | Cc1c(C)c(C)c(S(=O)(=O)N[C@H](CC(=O)O)c2nc3ccc(/C=C/CNc4ccccn4)cc3c(=O)[nH]2)c(C)c1C [Compound 14, (βR)-3,4-dihydro-4-oxo-β-[[(2,3,4,5,6-pentamethylphenyl)sulfonyl]amino]-6-[(1E)-3-(2-pyridinylamino)-1-propenyl]-2-quinazolinepropanoic Acid] | 1800 nM | 25 nM | – | –
4 | Cc1c(C)c(C)c(S(=O)(=O)N[C@@H](Cc2nc3ccc(/C=C/CNC4=NCCCCC4)cc3c(=O)[nH]2)C(=O)O)c(C)c1C [Compound 74, (αS)-3,4-dihydro-4-oxo-α-[[(2,3,4,5,6-pentamethylphenyl)sulfonyl]amino]-6-[(1E)-3-[(3,4,5,6-tetrahydro-2H-azepin-7-yl)amino]-1-propenyl]-2-quinazolinepropanoic acid] | 1300 nM | 5400 nM | – | –
5 | Cc1c(C)c(C)c(S(=O)(=O)N[C@@H](Cc2nc3ccc(/C=C/CNC(N)=O)cc3c(=O)[nH]2)C(=O)O)c(C)c1C [Compound 53, 6-[(1E)-3-[(aminocarbonyl)amino]-1-propenyl]-(αS)-3,4-dihydro-4-oxo-α-[[(2,3,4,5,6-pentamethylphenyl)sulfonyl]amino]-2-quinazolinepropanoic acid] | 200 nM | 31 nM | – | –
6 | COC(=O)[C@H](Cc1nc2ccc(/C=C/CNC3=NCCN3)cc2c(=O)[nH]1)NS(=O)(=O)c1c(C)c(C)c(C)c(C)c1C [Compound 41, 6-[(1E)-3-[(4,5-dihydro-1H-imidazol-2-yl)amino]-1-propenyl]-(αS)-3,4-dihydro-4-oxo-α-[[(2,3,4,5,6-pentamethylphenyl)sulfonyl]amino]methyl ester 2-quinazolinepropanoic acid] | 240 nM | 19 nM | – | –
7 | CCCCNC(=O)NC/C=C/c1ccc2nc(C[C@H](NS(=O)(=O)c3c(C)c(C)c(C)c(C)c3C)C(=O)O)[nH]c(=O)c2c1 [Compound 51, 6-[(1E)-3-[[(butylamino)carbonyl]amino]-1-propenyl]-(αS)-3,4-dihydro-4-oxo-α-[[(2,3,4,5,6-pentamethylphenyl)sulfonyl]amino]-2-quinazolinepropanoic acid] | 4800 nM | 17 nM | – | –
8 | O=C(O)[C@H](Cc1nc2ccc(/C=C/CNc3ccccn3)cc2c(=O)[nH]1)NS(=O)(=O)c1ccc(C(F)(F)F)cc1 [Compound 25, (αS)-3,4-dihydro-4-oxo-6-[(1E)-3-(2-pyridinylamino)-1-propenyl]-α-[[[4-(trifluoromethyl)phenyl]sulfonyl]amino]-2-quinazolinepropanoic acid] | 9600 nM | 72 nM | – | –
9 | COc1cccc([C@@H](CC(=O)O)c2nc3ccc(/C=C/CNc4ccccn4)cc3c(=O)n2C)c1 [Compound 18, (βR)-3,4-dihydro-β-(3-methoxyphenyl)-3-methyl-4-oxo-6-[(1E)-3-(2-pyridinylamino)-1-propenyl]-2-quinazolinepropanoic Acid] | > 50000 nM | 18000 nM | – | –
10 | COc1ccc(OC(=O)N[C@@H](Cc2nc3ccc(/C=C/CNC4=NCCN4)cc3c(=O)[nH]2)C(=O)O)cc1 [Compound 63, 6-[(1E)-3-[(4,5-dihydro-1H-imidazol-2-yl)amino]-1-propenyl]-(αS)-3,4-dihydro-α-[[(4-methoxyphenoxy)carbonyl]amino]-4-oxo-2-quinazolinepropanoic acid] | – | – | 950 nM | 100 nM
11 | Cc1cccnc1NC/C=C/c1ccc2nc(C[C@H](NS(=O)(=O)c3c(C)c(C)c(C)c(C)c3C)C(=O)O)[nH]c(=O)c2c1 [Compound 38, (αS)-3,4-dihydro-6-[(1E)-3-[(3-methyl-2-pyridinyl)amino]-1-propenyl]-4-oxo-α-[[(2,3,4,5,6-pentamethylphenyl)sulfonyl]amino]-2-quinazolinepropanoic acid] | 220 nM | 1400 nM | – | –
12 | O=C(N[C@@H](Cc1nc2ccc(C#CCNC3=NCCN3)cc2c(=O)[nH]1)C(=O)O)OCc1ccccc1 [Compound 20, 6-[3-[(4,5-dihydro-1H-imidazol-2-yl)amino]-1-propynyl]-(αS)-3,4-dihydro-4-oxo-α-[[(phenylmethoxy)carbonyl]amino]-2-quinazolinepropanoic acid] | 660 nM | > 5000 nM | – | –
13 | Cc1c(C)c(C)c(S(=O)(=O)N[C@@H](Cc2nc3ccc(/C=C/CNC(=O)NC(C)C)cc3c(=O)[nH]2)C(=O)O)c(C)c1C [Compound 58, (αS)-3,4-dihydro-6-[(1E)-3-[[[(1-methylethyl)amino]carbonyl]amino]-1-propenyl]-4-oxo-α-[[(2,3,4,5,6-pentamethylphenyl)sulfonyl]amino]-2-quinazolinepropanoic acid] | 2500 nM | 44 nM | – | –

The next lines start with results.

Row | IC50 (GPIIb/IIIa; [1]) | IC50 (Human αvβ3; [2]) | Compound | IC50 (GPIIb/IIIa) | IC50 (Human αvβ3)
14 | 3900 nM | 21 nM | COc1ccc(OC)c(S(=O)(=O)N[C@@H](Cc2nc3ccc(/C=C/CNc4ccccn4)cc3c(=O)[nH]2)C(=O)O)c1 [Compound 32, α-[[(2,5-dimethoxyphenyl)sulfonyl]amino]-(αS)-3,4-dihydro-4-oxo-6-[(1E)-3-(2-pyridinylamino)-1-propenyl]-2-quinazolinepropanoic acid] | – | –
15 | 270 nM | 42 nM | COc1ccc(S(=O)(=O)N[C@@H](Cc2nc3ccc(/C=C/CNC4=NCCC4)cc3c(=O)[nH]2)C(=O)O)cc1OC [Compound 55, 6-[(1E)-3-[(3,4-dihydro-2H-pyrrol-5-yl)amino]-1-propenyl]-α-[[(3,4-dimethoxyphenyl)sulfonyl]amino]-(αS)-3,4-dihydro-4-oxo-2-quinazolinepropanoic acid] | – | –
16 | 230 nM | 440 nM | COc1ccc(S(=O)(=O)N[C@@H](Cc2nc3ccc(/C=C/CNC4=NCCCCCC4)cc3c(=O)[nH]2)C(=O)O)cc1OC [Compound 68, α-[[(3,4-dimethoxyphenyl)sulfonyl]amino]-6-[(1E)-3-[(3,4,5,6,7,8-hexahydro-2-azocinyl)amino]-1-propenyl]-(αS)-3,4-dihydro-4-oxo-2-quinazolinepropanoic acid] | – | –
17 | 670 nM | 8.6 nM | O=C(O)[C@H](Cc1nc2ccc(/C=C/CNC3=NCCN3)cc2c(=O)[nH]1)NS(=O)(=O)CCc1cccc2ccccc12 [Compound 5, 6-[(1E)-3-[(4,5-dihydro-1H-imidazol-2-yl)amino]-1-propenyl]-(αS)-3,4-dihydro-α-[[[2-(1-naphthalenyl)ethyl]sulfonyl]amino]-4-oxo-2-quinazolinepropanoic Acid] | – | –
18 | 64 nM | 11 nM | COc1ccc(S(=O)(=O)N[C@@H](Cc2nc3ccc(/C=C/CNC4=NCCN4)cc3c(=O)[nH]2)C(=O)O)cc1OC [Compound 48, 6-[(1E)-3-[(4,5-dihydro-1H-imidazol-2-yl)amino]-1-propenyl]-α-[[(3,4-dimethoxyphenyl)sulfonyl]amino]-(αS)-3,4-dihydro-4-oxo-2-quinazolinepropanoic acid] | – | –
19 | 320 nM | 14 nM | O=C(O)[C@H](Cc1nc2ccc(/C=C/CNC3=NCCN3)cc2c(=O)[nH]1)NS(=O)(=O)c1cccc2cccnc12 [Compound 4, 6-[(1E)-3-[(4,5-dihydro-1H-imidazol-2-yl)amino]-1-propenyl]-(αS)-3,4-dihydro-4-oxo-α-[(8-quinolinylsulfonyl)amino]-2-quinazolinepropanoic Acid] | – | –
